# Measurements: the OPERA property sets (Mansouri et al. 2018)
row,logP,Structure (SMILES)
1,1.17,CC(C)C(=O)NS(=O)(=O)c1ccccc1N
2,2.17,CCC(CC)C(=O)NS(=O)(=O)c1ccccc1[N+](=O)[O-]
3,2.03,CCC(CC)C(=O)NS(=O)(=O)c1ccc(OC)cc1N
4,3.57,CCC(CC)C(=O)NS(=O)(=O)c1cc([N+](=O)[O-])cc(C(F)(F)F)c1
5,1.45,Cc1ccc(S(N)(=O)=O)c(NC(=O)C(C)C)c1
6,1.58,COc1ccc(S(=O)(=O)NC(=O)C(C)C)c(N)c1
7,1.37,COc1ccc(S(N)(=O)=O)c(NC(=O)C(C)C)c1
8,2.17,Cc1ccc(S(=O)(=O)NC(=O)C(C)C)c([N+](=O)[O-])c1
9,2.67,CCC(CC)C(=O)NS(=O)(=O)c1ccc(C)cc1[N+](=O)[O-]
10,2.13,CCC(CC)C(=O)Nc1cc(C)ccc1S(N)(=O)=O
11,2.01,CCC(CC)C(=O)Nc1cc(OC)ccc1S(N)(=O)=O
12,0.97,CC(C)C(=O)Nc1ccccc1S(N)(=O)=O
13,1.64,CCC(CC)C(=O)NS(=O)(=O)c1ccccc1N
14,1.62,CCC(CC)C(=O)Nc1ccccc1S(N)(=O)=O
15,1.65,Cc1ccc(S(=O)(=O)NC(=O)C(C)C)c(N)c1
16,1.87,CC(C)C(=O)Nc1cc(Cl)ccc1S(N)(=O)=O
17,1.72,CC(C)C(=O)NS(=O)(=O)c1ccccc1[N+](=O)[O-]
18,3.06,CCC(CC)C(=O)Nc1cc(C(F)(F)F)ccc1S(N)(=O)=O
